These results are taken from ChEMBL document CHEMBL1201862, “PubChem BioAssay data set” (2004).

Active and inactive are the calls of the source. A value given as a limit tells only on which side of the number the result lay.

One experiment has as its target Mu-type opioid receptor (Homo sapiens, UniProt P35372). The experiment can be described thus: SAR Analysis of Antagonists of the MOR Receptor using an Image-Based Assay - Set 3. [Related pubchem assays (depositor defined):AID1777, AID1785, AID1786, AID1966, AID2133, AID2136, AID2284, AID2285, AID2420]. Format: functional.
Experiment [1] has as its target Delta-type opioid receptor (Homo sapiens, UniProt P41143). The experiment can be described thus: SAR Analysis of Antagonists of the DOR Receptor using an Image-Based Assay - Set 3. [Related pubchem assays (depositor defined):AID1777, AID1785]. It counts as functional.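 Further: U2OS cells expressing DOR1 and beta-arrestin GFP stimulated with 100 nM SNC80; imaging of GFP-tagged beta-arrestin moving into spots after receptor activation.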
The target of experiment [2] is T1, Kappa-type opioid receptor (Homo sapiens, UniProt P41145). The experiment is described as follows: SAR analysis of small molecule antagonists of the kappa opioid receptor via a luminescent beta-arrestin assay - Set 3. [Related pubchem assays (depositor defined):AID1777, AID1778, AID1785, AID1786, AID1966, AID2133, AID2136, AID2285, AID2495]. Format: functional.

Experiment [3] concerns the target T1, Kappa-type opioid receptor. The experiment can be described thus: SAR analysis of Antagonists of the Kappa Opioid Receptor (KOR) using an Image-Based Assay - Set 3. [Related pubchem assays (depositor defined):AID1777, AID1785]. Format: functional.
Experiment [4] addresses T2, Cannabinoid receptor 2 (Homo sapiens, UniProt P34972). The experiment is described as follows: SAR analysis of antagonists of the Cannabinoid Receptor 2 using an Image-Based Assay - Set 2. [Related pubchem assays (depositor defined):AID1961, AID1965]. It counts as functional.
Experiment [5] concerns the target G-protein coupled receptor 55 (Homo sapiens, UniProt Q9Y2T6). The experiment is described as follows: SAR analysis of selective Agonists of GPR55 using an Image-Based Assay - Set 2. [Related pubchem assays (depositor defined):AID1961, AID1965]. It counts as functional.
Experiment [6] deals with T2, Cannabinoid receptor 2. The experiment is described as follows: SAR analysis of agonists of the Cannabinoid Receptor 2 using an Image-Based Assay - Set 2. [Related pubchem assays (depositor defined):AID1961, AID1965]. It counts as functional.
Experiment [7] concerns the target T3, G-protein coupled receptor 35 (Homo sapiens, UniProt Q9HC97). The experiment is described as follows: SAR analysis of Agonists of the GPR35 Receptor using an Image-Based Assay - Set 3. [Related pubchem assays (depositor defined):AID1961, AID1965]. It counts as functional.
The target of experiment [8] is T4, Cannabinoid receptor 1 (Homo sapiens, UniProt P21554). The experiment can be described thus: SAR analysis of antagonists of the Cannabinoid Receptor 1 using an Image-Based Assay - Set 3. [Related pubchem assays (depositor defined):AID1961, AID1965]. It counts as functional.
Experiment [9] concerns the target T4, Cannabinoid receptor 1. The experiment is described as follows: SAR analysis of agonists of the Cannabinoid Receptor 1 using an Image-Based Assay - Set 3. [Related pubchem assays (depositor defined):AID1961, AID1965]. Format: functional.
The target of experiment [10] is T3, G-protein coupled receptor 35. The experiment can be described thus: SAR analysis of Antagonists of the GPR35 Receptor using an Image-Based Assay - Set 4. [Related pubchem assays (depositor defined):[…]]. It counts as functional.
The target in experiment [11] is Glucose-6-phosphate 1-dehydrogenase (Homo sapiens, UniProt P11413). The experiment can be described thus: inhibition of Homo sapiens G6PD, dose series – biochemical, fluorescence, selectivity assay for P. falciparum G6PD inhibitor project, dose response (AID 504792). Format: functional.
In experiment [12] the target is C-C chemokine receptor type 6 (Homo sapiens, UniProt P51684). The experiment is described as follows: antagonism of CCR6 beta-arrestin recruitment – cell-based, luminescent beta-arrestin readout, dose response (AID 504728). Format: functional. In general terms: Activated receptors often draw arrestin, which recruitment assays turn into a signal.
In a further experiment the target is T5, Hexokinase HKDC1 (Homo sapiens, UniProt Q2TB90).
T5 sequence (Q2TB90 whole entry): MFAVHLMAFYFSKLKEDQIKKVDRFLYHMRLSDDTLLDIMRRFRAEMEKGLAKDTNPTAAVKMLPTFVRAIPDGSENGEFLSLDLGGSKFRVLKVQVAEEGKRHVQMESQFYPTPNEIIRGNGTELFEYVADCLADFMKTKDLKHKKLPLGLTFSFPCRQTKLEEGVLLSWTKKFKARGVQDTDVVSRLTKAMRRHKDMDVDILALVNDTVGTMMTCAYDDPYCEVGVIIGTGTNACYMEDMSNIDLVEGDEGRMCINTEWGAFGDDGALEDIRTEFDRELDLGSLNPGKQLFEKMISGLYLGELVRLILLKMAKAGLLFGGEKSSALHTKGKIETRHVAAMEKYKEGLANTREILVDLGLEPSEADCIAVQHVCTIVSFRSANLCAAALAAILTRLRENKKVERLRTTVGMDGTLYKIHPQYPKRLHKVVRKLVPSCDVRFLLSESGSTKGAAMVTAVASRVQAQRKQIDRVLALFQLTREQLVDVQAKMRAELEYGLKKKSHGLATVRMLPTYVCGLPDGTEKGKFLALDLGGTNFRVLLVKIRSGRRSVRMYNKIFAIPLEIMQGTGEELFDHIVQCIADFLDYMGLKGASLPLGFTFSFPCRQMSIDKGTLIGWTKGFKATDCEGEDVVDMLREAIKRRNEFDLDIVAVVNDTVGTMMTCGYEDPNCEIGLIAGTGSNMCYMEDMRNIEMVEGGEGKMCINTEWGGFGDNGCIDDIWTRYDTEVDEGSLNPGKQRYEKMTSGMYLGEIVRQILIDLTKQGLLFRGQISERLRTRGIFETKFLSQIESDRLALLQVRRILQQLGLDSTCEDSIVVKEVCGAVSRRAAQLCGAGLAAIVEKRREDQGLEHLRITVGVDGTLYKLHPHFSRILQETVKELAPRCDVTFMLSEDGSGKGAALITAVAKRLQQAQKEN
The experiment is described as follows: activation of HKDC1 glucose phosphorylation – biochemical, W721R variant, dose response (AID 504730). It counts as functional.

For a further experiment, the target named is Beta-galactosidase (Escherichia coli, UniProt Q8VNN2). The experiment is described as follows: detection-enzyme interference by beta-gal modulators – biochemical, E. coli enzyme, set 3, artefact control for CCR6 antagonist project, dose response (AID 504712). Format: functional.
Another experiment addresses Hexokinase-1 (Homo sapiens, UniProt P19367). The experiment can be described thus: HK1 enzyme activation by HKDC1 hits – biochemical, selectivity assay for HKDC1 activator project, dose response (AID 504762). Format: functional.
Experiment [13] addresses Heat shock protein HSP 90-alpha (Homo sapiens, UniProt P07900). It counts as functional, organism-based.
Experiment [14] can be described thus: Fluorescence-based cell-based high throughput dose response assay for inhibitors of the interaction of nucleotide-binding oligomerization domain containing 2 (NOD2) and the receptor-interacting serine-threonine kinase 2 (RIPK2). Format: functional. As to conditions: Homo sapiens.
The target of a further experiment is Beta Lactamase (Pseudomonas aeruginosa, UniProt Q932Y6). The experiment can be described thus: BLA reporter interference, concentration series – BLA reporter cells, FRET fluorescence, artefact control for NOD2-RIPK2 interaction inhibitor project, dose response (AID 651552). Format: functional, cell-based.
The target in experiment [15] is Peroxisome proliferator-activated receptor gamma (Homo sapiens, UniProt P37231). The experiment is described as follows: PPARg transcriptional activation, reporter cells – cell-based, luminescence, assay provider, dose response (AID 504447). It counts as functional.
Experiment [16] concerns the target Peroxisome proliferator-activated receptor alpha (Homo sapiens, UniProt Q07869). The experiment is described as follows: Late stage assay provider counterscreen for partial agonists of the peroxisome proliferator-activated receptor gamma (PPARg): Luminescence-based cell-based dose response assay for partial agonists of the peroxisome proliferator-activated receptor alpha (PPARA). [Related pubchem assays (depositor defined):AID1051, AID1300, AID1319, AID1679, AID1808, AID504446, AID504447, AID504452, AID504453, AID631]. It counts as functional. A general note: The purpose of a counterscreen is to sort out artefacts and off-target activity.

Experiment [17] relates to HEK293. The experiment can be described thus: inhibition of NOD1-driven NF-kB reporter – cell-based, luminescence, uHTS, primary screen (AID 1578). As to conditions: Homo sapiens. It counts as functional.
In experiment [18] the test system is HEK293. The experiment is described as follows: cells. Format: functional, cell-based. As to conditions: Homo sapiens.
Experiment [19] has as its target Nucleotide-binding oligomerization domain-containing protein 2 (Homo sapiens, UniProt Q9HC29). The experiment is described as follows: inhibition of NOD2-driven NF-kB reporter – cell-based, luminescence, uHTS, HEK293 (AID 1566). It counts as functional.
Experiment [20] relates to HEK293. The experiment is described as follows: NOD2 signaling inhibitors in MDP-stimulated cells, cell-based, uHTS, luminescence (AID 2001). Format: functional. As to conditions: Homo sapiens.
Experiment [21] concerns HEK293. The experiment can be described thus: cells. It counts as functional, cell-based. Particulars: Homo sapiens. This is another data set of the same source.

T1 sequence (P41145 whole entry): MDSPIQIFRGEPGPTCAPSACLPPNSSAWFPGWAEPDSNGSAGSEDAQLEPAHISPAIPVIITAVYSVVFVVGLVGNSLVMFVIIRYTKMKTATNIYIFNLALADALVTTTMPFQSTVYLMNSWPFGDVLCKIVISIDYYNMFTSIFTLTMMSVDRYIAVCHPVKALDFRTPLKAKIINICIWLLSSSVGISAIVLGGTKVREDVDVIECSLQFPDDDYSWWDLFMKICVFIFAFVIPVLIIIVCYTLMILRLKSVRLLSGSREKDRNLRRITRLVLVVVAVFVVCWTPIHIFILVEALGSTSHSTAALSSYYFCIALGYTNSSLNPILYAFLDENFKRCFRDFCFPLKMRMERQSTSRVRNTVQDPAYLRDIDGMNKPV
T3 sequence (Q9HC97 whole entry): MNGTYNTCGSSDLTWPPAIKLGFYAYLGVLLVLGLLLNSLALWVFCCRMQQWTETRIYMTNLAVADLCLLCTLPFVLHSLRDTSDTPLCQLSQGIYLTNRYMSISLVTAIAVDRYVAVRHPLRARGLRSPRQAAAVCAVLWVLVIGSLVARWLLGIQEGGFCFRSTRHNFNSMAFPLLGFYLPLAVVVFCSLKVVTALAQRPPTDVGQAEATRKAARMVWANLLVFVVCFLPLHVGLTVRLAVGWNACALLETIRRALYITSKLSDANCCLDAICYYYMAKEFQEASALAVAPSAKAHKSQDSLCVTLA
T4 sequence (P21554 whole entry): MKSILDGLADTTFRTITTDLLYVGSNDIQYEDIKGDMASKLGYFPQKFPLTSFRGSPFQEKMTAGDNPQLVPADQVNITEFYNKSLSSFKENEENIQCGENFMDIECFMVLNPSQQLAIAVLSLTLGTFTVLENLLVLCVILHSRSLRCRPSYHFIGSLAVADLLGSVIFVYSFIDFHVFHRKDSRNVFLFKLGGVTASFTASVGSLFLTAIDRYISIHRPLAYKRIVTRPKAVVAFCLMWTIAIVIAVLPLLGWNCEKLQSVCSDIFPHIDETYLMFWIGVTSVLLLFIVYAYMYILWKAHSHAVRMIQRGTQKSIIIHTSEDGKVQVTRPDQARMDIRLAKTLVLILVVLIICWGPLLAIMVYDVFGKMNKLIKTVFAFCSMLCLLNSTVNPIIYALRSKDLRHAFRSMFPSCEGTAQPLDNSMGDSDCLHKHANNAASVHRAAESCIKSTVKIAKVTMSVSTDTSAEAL
T2 sequence (P34972 whole entry): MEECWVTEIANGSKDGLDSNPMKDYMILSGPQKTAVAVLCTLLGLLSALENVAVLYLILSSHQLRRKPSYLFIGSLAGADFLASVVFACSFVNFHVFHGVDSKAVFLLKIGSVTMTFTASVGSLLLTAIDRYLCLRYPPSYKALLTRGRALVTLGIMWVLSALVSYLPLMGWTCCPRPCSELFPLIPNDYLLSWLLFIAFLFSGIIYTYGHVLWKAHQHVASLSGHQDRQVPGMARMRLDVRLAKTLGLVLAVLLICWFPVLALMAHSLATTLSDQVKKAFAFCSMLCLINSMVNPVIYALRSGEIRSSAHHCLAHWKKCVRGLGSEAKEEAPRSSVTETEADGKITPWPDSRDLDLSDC
Beta Lactamase, sequence (Q932Y6 whole entry): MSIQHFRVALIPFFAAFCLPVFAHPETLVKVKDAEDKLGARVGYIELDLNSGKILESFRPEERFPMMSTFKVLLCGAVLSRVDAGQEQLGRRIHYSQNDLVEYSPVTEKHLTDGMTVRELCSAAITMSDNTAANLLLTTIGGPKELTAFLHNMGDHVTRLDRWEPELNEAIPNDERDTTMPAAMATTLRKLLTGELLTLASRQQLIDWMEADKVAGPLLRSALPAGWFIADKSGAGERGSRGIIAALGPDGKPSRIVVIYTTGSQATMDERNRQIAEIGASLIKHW
C-C chemokine receptor type 6, sequence (P51684 whole entry): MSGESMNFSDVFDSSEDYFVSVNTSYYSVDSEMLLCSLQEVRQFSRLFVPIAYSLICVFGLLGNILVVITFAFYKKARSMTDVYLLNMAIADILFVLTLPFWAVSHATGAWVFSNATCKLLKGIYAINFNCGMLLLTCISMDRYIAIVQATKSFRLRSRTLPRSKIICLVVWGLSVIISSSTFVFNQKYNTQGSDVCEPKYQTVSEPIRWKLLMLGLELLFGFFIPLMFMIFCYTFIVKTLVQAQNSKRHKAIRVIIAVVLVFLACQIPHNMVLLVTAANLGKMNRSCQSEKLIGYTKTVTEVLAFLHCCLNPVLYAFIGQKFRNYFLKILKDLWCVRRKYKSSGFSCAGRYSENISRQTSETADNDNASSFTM
Peroxisome proliferator-activated receptor gamma, sequence (P37231 whole entry): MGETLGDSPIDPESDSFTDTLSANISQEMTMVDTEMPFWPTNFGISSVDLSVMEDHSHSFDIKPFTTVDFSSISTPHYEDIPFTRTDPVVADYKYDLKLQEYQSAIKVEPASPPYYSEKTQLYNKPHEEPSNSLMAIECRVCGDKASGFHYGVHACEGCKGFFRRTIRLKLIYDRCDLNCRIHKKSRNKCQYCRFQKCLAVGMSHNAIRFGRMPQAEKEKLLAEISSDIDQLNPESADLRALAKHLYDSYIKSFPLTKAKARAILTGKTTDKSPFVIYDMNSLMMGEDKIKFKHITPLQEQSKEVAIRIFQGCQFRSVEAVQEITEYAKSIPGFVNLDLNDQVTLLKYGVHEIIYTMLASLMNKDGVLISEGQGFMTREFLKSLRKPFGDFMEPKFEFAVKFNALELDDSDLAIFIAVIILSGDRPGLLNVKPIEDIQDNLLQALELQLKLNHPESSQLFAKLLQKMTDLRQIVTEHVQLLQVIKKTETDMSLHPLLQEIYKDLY
Hexokinase-1, sequence (P19367 whole entry): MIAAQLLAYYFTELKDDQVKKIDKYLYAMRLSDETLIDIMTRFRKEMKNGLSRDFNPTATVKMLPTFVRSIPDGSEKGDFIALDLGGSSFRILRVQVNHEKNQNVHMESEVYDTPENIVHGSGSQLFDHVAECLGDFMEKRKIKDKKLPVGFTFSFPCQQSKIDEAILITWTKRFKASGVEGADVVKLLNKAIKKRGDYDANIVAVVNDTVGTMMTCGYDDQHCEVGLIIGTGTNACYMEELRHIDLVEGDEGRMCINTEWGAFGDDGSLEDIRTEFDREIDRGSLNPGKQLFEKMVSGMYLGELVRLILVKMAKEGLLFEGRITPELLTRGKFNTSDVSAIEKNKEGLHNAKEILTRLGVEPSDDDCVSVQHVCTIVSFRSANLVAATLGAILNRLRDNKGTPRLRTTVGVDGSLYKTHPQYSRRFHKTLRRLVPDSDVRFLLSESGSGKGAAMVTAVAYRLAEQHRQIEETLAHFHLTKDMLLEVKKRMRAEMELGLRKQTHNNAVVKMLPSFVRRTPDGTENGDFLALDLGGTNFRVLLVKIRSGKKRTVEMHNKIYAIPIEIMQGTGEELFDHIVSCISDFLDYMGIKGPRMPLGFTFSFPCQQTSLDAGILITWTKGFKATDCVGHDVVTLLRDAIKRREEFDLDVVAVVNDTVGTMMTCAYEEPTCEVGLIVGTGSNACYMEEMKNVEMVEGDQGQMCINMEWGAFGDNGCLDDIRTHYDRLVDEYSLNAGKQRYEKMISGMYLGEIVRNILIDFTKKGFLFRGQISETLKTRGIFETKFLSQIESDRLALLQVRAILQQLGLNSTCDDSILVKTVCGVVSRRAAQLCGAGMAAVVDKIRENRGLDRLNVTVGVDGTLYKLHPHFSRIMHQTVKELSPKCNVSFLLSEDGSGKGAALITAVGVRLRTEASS
Glucose-6-phosphate 1-dehydrogenase, sequence (P11413 whole entry): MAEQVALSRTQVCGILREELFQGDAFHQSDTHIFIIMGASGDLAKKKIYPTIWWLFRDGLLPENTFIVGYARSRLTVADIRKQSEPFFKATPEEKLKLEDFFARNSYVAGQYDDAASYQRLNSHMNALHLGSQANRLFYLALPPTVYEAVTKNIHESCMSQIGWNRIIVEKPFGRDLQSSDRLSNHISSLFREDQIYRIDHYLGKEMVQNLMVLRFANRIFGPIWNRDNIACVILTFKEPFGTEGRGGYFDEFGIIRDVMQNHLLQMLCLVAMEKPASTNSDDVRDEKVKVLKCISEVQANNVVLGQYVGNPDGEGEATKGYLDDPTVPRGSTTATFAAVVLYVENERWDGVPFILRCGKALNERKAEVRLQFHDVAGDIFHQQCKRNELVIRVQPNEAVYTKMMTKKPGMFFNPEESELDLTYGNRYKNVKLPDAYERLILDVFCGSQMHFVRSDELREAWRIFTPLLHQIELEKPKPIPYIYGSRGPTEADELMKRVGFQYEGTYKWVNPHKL
G-protein coupled receptor 55, sequence (Q9Y2T6 whole entry): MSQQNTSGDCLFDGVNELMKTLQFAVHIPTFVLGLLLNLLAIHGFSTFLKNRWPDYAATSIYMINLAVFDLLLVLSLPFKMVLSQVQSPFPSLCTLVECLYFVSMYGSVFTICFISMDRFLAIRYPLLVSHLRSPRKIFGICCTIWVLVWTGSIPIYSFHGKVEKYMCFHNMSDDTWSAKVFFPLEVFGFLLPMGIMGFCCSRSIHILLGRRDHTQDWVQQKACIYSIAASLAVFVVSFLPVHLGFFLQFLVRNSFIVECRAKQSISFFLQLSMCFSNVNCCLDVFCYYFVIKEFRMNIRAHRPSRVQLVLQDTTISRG
Peroxisome proliferator-activated receptor alpha, sequence (Q07869 whole entry): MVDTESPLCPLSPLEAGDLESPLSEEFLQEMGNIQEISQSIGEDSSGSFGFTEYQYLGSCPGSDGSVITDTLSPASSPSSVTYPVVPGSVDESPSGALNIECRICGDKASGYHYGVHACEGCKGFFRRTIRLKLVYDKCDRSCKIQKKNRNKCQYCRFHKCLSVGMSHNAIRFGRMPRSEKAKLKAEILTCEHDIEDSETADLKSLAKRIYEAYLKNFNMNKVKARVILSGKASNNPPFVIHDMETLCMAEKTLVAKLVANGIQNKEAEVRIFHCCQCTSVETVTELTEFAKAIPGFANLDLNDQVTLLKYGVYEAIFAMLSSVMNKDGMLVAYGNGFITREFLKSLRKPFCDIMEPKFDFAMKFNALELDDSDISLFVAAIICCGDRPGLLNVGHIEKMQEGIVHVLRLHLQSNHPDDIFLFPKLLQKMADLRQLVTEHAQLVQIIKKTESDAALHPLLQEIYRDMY

Consider `Cc1ccc(Cl)cc1N1CCN(CCNC(=O)Cn2c(=O)c3cccn3c3cccnc32)CC1`, for which the IC50 is 3.98 µM (active) on Mu-type opioid receptor, > 32 µM (inactive) in experiment [1], > 20 µM (inactive) in experiment [2] and > 32 µM (inactive) in experiment [3].
For `CCN(CC)S(=O)(=O)c1ccc(N2CCCCC2)c(C(=O)N2CCN(c3ccccc3)CC2)c1`, the values for the IC50 (at Cannabinoid receptor 2 [4]; at Cannabinoid receptor 1 [8]; in experiment [10]) were > 32 µM (inactive), 9.36 µM (active) and > 32 µM (inactive), respectively. In addition, the EC50 (in experiment [5]; on Cannabinoid receptor 2 [6]; in experiment [7]; on Cannabinoid receptor 1 [9]) was > 32 µM (inactive) throughout.
As for `COC(=O)C1=C(C(=O)OC)SC2(S1)C(C(=O)OC)=C(C(=O)OC)Sc1c2ssc1=O`, the IC50 in experiment [11] is > 80 µM (inactive); in experiment [12], 28.5 µM (inactive); at Beta-galactosidase, > 66.6 µM (inactive); in experiment [14], 0.727 µM (active); at Beta Lactamase, 14.1 µM (inactive). Further, the EC50 at Hexokinase HKDC1 is 33.1 µM (inactive); on Hexokinase-1, 49.6 µM (inactive). Further, the AC50 in experiment [13] is 4.21 µM (active).
In the case of `CCOc1cccc(/C=C2/SC(=S)N(CCC(=O)O)C2=O)c1`, the 50% effective concentration (EC50) in experiment [15] was 2.6 µM (active); in experiment [16], > 3 µM (inactive).
As to `Cc1c(/C=N/NC(=O)c2ccccc2O)c2ccccn2c1C(=O)c1ccc(F)cc1`, the values for the EC50 (in the experiment with HEK293 [17]; in [19]) were 10.3 µM (active) and 6.46 µM (active), respectively. Also, the IC50 in the experiment with HEK293 [18] is 10.9 µM (active); with HEK293 [20], 6.49 µM (active); with HEK293 [21] it was 11.5 µM (active).

Broadly, the IC50 is the concentration at which inhibition is half-maximal. A word on the EC50: it is the concentration that produces a half-maximal response. As usually defined, the AC50 is the midpoint of the concentration-response curve, whichever way the signal moves.
